Measurements as given in ChEMBL document CHEMBL1137533, “Activity of 7-methyljuglone derivatives against Mycobacterium tuberculosis and as subversive substrates for mycothiol disulfide reductase” (Bioorg Med Chem, 2007).
≈ marks a conversion by molar mass, not a printed value. Calls of active or inactive are those of the source. No cut-off for these calls is given here.

Legend:
[1] = Selectivity index, ratio of IC50 for Vero cells to MIC of Mycobacterial tuberculosis H37Rv; format: functional
[2] = system: Vero; assay: Cytotoxicity against Vero cells after 48 hrs by XTT method; format: cell-based; details: Chlorocebus sabaeus
[3] = system: Mycobacterium tuberculosis; assay: Antimycobacterial activity against Mycobacterium tuberculosis H37Rv; format: functional
[4] = system: Mycobacterium tuberculosis; assay: Activity of Mycobacterium tuberculosis mycothiol reductase
[5] = system: Mycobacterium tuberculosis; assay: Antimycobacterial activity against Mycobacterium tuberculosis H37Rv at MIC; format: functional
[6] = system: Mycobacterium tuberculosis; assay: Ratio of kcat to Km of Mycobacterium tuberculosis mycothiol reductase; parameters: unit not given here
[7] = system: Mycobacterium tuberculosis; assay: Activity of Mycobacterium tuberculosis mycothiol reductase upto 800 uM

| Compound | Ratio [1] | IC50 [2] [µg/mL] | MIC [3] [µg/mL] | Km [4] [µM] | kcat [4] [s⁻¹] | Activity [5] [%] | kcat/Km [6] | Activity [7] |
| --- | --- | --- | --- | --- | --- | --- | --- | --- |
| Cc1ccc2c(c1O)C(=O)C=CC2=O | 0.63 | 3.1 (≈ 16.5 µM) | 5 (≈ 26.6 µM) | – | – | – | – | – |
| CC(=O)Oc1cc(C)cc2c1C(=O)C=CC2=O | 2.4 | 6 (≈ 26.1 µM) | 2.5 (≈ 10.9 µM) | 389 | 3.17 | 99.9 | 8.15e+07 | – |
| CC(=O)Oc1cc(C)c(Cl)c2c1C(=O)C=CC2=O | 0.63 | 6.3 (≈ 23.8 µM) | 10 (≈ 37.8 µM) | – | – | 99.9 | – | – |
| COc1cc(C)cc2c1C(=O)C=CC2=O | 0.39 | 5.8 (≈ 28.7 µM) | 15 (≈ 74.2 µM) | – | – | 99.9 | – | – |
| CC(=O)Oc1cc(OC(C)=O)c2c(OC(C)=O)c(C)cc(Cl)c2c1OC(C)=O | – | 149 (≈ 365 µM) | > 20 | – | – | 99.9 | – | – |
| COc1cc(C)c(Cl)c2c1C(=O)C=CC2=O | – | 7.7 (≈ 32.5 µM) | > 20 | 435 | 0.142 | 99.9 | 3.3e+06 | – |
| CCOc1c(C)cc(Cl)c2c1C(=O)C=CC2=O | 0.83 | 12.5 (≈ 49.9 µM) | 15 (≈ 59.8 µM) | – | – | 99.9 | – | – |
| CCOc1cc(C)cc2c1C(=O)C=CC2=O | 0.42 | 6.3 (≈ 29.1 µM) | 15 (≈ 69.4 µM) | – | – | 99.9 | – | – |
| CCOc1cc(C)c(Cl)c2c1C(=O)C=CC2=O | – | 36.1 (≈ 144 µM) | > 20 | – | – | 99.9 | – | – |
| CC(=O)Oc1cc(OC(C)=O)c2c(OC(C)=O)cc(C)cc2c1OC(C)=O | – | 17.2 (≈ 45.9 µM) | > 20 | – | – | 99.9 | – | – |
| COc1c(C)cc(Cl)c2c1C(=O)C=CC2=O | 0.54 | 8 (≈ 33.8 µM) | 15 (≈ 63.4 µM) | – | – | 99.9 | – | – |
| CC(=O)Oc1cc(OC(C)=O)c2c(OC(C)=O)cc(C)c(Cl)c2c1OC(C)=O | – | 27.8 (≈ 68 µM) | > 20 | – | – | 99.9 | – | – |
| CC(=O)Oc1c(C)cc(Cl)c2c1C(=O)C=CC2=O | 2.1 | 21.1 (≈ 79.7 µM) | 10 (≈ 37.8 µM) | – | – | 99.9 | – | – |
| Cc1cc(O)c2c(c1)C(=O)C(O)=CC2=O | 0.63 | 3.1 (≈ 15.2 µM) | 5 (≈ 24.5 µM) | – | – | 99.9 | – | – |
| Cc1cc(O)c2c(c1Br)C(=O)C=CC2=O [5-BROMO-8-HYDROXY-6-METHYLNAPHTHALENE-1,4-DIONE] | 0.71 | 3.6 (≈ 13.5 µM) | 5 (≈ 18.7 µM) | – | – | – | – | – |
| Cc1cc(O)c2c(c1Cl)C(=O)C=CC2=O [5-CHLORO-8-HYDROXY-6-METHYLNAPHTHALENE-1,4-DIONE] | 0.25 | 2.5 (≈ 11.2 µM) | 10 (≈ 44.9 µM) | 233 | 0.212 | – | 9.1e+06 | – |
| Cc1cc(O)c2c(c1F)C(=O)C=CC2=O [5-FLUORO-8-HYDROXY-6-METHYLNAPHTHALENE-1,4-DIONE] | 0.76 | 7.6 (≈ 36.9 µM) | 10 (≈ 48.5 µM) | – | – | – | – | – |
| Cc1cc(Cl)c2c(c1O)C(=O)C=CC2=O [8-CHLORO-5-HYDROXY-6-METHYLNAPHTHALENE-1,4-DIONE] | 0.92 | 4.6 (≈ 20.7 µM) | 5 (≈ 22.5 µM) | 36 | 0.592 | 99.9 | 1.64e+08 | – |
| Cc1cc(O)c2c(c1)C(=O)C(c1c(C)cc3c(c1O)C(=O)C=CC3=O)=CC2=O [DIOSPYRIN] | 2.2 | 17.8 (≈ 47.5 µM) | 8 (≈ 21.4 µM) | 33 | 0.118 | – | 3.57e+07 | – |
| CC[C@@H](CO)NCCN[C@@H](CC)CO [ETHAMBUTOL] | >75 | > 150 | 2 (≈ 9.79 µM) | – | – | 99.9 | – | – |
| NNC(=O)c1ccncc1 [ISONIAZID] | >1000 | > 200 | 0.2 (≈ 1.46 µM) | – | – | 99.9 | – | – |
| CC1=CC(=O)c2ccccc2C1=O [MENADIONE] | 1.3 | 6.5 (≈ 37.8 µM) | 5 (≈ 29 µM) | 483 | 0.732 | 99.9 | 1.52e+07 | – |
| O=C1C=CC(=O)c2ccccc21 [NAPHTHOQUINONE] | 1.19 | 1.2 (≈ 7.59 µM) | 1 (≈ 6.32 µM) | 324 | 1.09 | 99.9 | 3.36e+07 | – |
| Cc1cc(O)c2c(c1)C(=O)C=C(c1c(C)cc(O)c3c1C(=O)C=CC3=O)C2=O [NEODIOSPYRIN] | 3.2 | 32 (≈ 85.5 µM) | 10 (≈ 26.7 µM) | 63 | 0.308 | – | 4.88e+07 | – |
| Cc1cc(O)c2c(c1)C(=O)C=CC2=O [RAMENTACEONE] | 30.22 | 15.1 (≈ 80.2 µM) | 0.5 (≈ 2.66 µM) | 254 | 2.37 | – | 9.31e+07 | – |
| Cc1cc(O)c2c(c1)[C@H](O)CCC2=O [SHINANOLONE] | – | – | > 100 | – | – | 99.9 | – | inactive |
| CN[C@@H]1[C@H](O[C@H]2[C@H](O[C@H]3[C@H](O)[C@@H](O)[C@H](N=C(N)N)[C@@H](O)[C@@H]3N=C(N)N)O[C@@H](C)[C@]2(O)C=O)O[C@@H](CO)[C@H](O)[C@H]1O [STREPTOMYCIN] | >120 | > 120 | 1 (≈ 1.72 µM) | – | – | 99.9 | – | – |
